One data set has as its target chymotrypsin (Bos taurus, UniProt P00766). Kind of data set: Proteolytic stability in the presence of chymotrypsin (HPLC). To be noted: chymotrypsin 1.0 μg/mL, peptide 10 μM.
For a further data set, the system named is SJSA-1 cells. Kind of data set: Cell viability (MTT) assay in SJSA-1 osteosarcoma cells. The format is cell-based, human. Particulars: overnight treatment. The protocol:
The cytotoxic activity of the macrocyclic peptidomimetic molecules is determined, for example, in cell-based assays using tumorigenic and non-tumorigenic cell lines and primary cells derived from human or mouse cell populations. […]. Such assays can be used to assess the efficacy of the macrocyclic peptidomimetic molecules to reduce the viability of tumorigenic and non-tumorigenic cells. In addition, assays that measure Annexin V and caspase activation can be optionally used to assess whether the cytotoxicity of the macrocyclic peptidomimetic molecules is dependent upon activation of the apoptotic machinery, which is expected to result from reactivation of p53 activity.
Similar results were obtained for other p53 macrocyclic peptidomimetic molecules described in FIG. 10, resulting in LD50 in the low micromolar range.
Cultured SJSA-1 cells were maintained in the RPMI-1640 medium supplemented with 10% fetal bovine serum. For viability evaluation cells were seated in 96-well, tissue culture treated plates (2×10^4 cells/well) and incubated overnight. […] The cells were treated overnight and the viability was assessed by a standard MTT (3-(4,5-dimethylthiazol-2-yl)-2,5-diphenyltetrazolium bromide) assay. The viability is expressed as percentage of viability of the non-treated cells.

For the next data set, the system named is HEK-293 cells. Put plainly: Cell penetration by confocal fluorescence microscopy. It counts as cell-based, human. To be noted: fluorescein-conjugated compound, 20 μM, 2 h. The protocol: In some embodiments, the macrocyclic peptidomimetics described herein are more cell permeable than a corresponding non-macrocyclic counterpart. […] To measure the cell permeability of these compounds, intact cells are incubated with fluorescently labeled (e.g. fluorescein-conjugated) macrocyclic peptidomimetic molecule or corresponding non-macrocyclic counterpart (10 μM) for 4 hrs in serum free media at 37° C. Cells are then washed twice with media, incubated with trypsin (e.g. 0.25% trypsin, 10 min, 37° C.), then washed again and resuspended in PBS. Cellular fluorescence is analyzed, for example, by using a FACSCalibur flow cytometer. Alternatively, the ability of the fluorescently labelled compound to penetrate cells can be assessed by confocal fluorescence microscopy.
Similar results were obtained for other p53 macrocyclic peptidomimetic molecules described in FIG. 10.
The cell permeability properties of the macrocyclic peptidomimetics and reference linear peptides were assessed using HEK-293 cell line. These cells were cultured in the DMEM medium supplemented with 10% fetal bovine serum and penicillin/streptomycin. For the cell permeability evaluations, cells were seated overnight (1×10^4 cells/well) in 24-well tissue culture treated plates with glass bottom. […]

A short description of data set [1]: Circular dichroism analysis of α-helicity. Particulars: 5 mM potassium phosphate pH 7.0, 40% trifluoroethanol.
Procedure: The alpha helical content of the macrocyclic peptidomimetic molecules and reference non-macrocyclic compounds disclosed herein can be determined by Circular Dichroism (CD) spectroscopy.
CD spectra were recorded with a JASCO J-710 CD spectropolarimeter using a 0.1 cm path length cuvette at room temperature. The purified peptides were dissolved in 5 mM potassium phosphate buffer (pH 7.0) containing 40% trifluoroethanol to a final concentration of 20-50 μM. […] The bandwidth was set to 2.0 nm and the sensitivity of the spectrometer set to 100 mdeg.
Data set [2] has as its system p53(15-29)-HDM2 interaction. Kind of data set: HDM2 IC50 (nM). An excerpt:
(§1) Table printed on a drawing sheet, FIG. 10
Head of the field: HDM2 IC50 (nM)
(§2) The patent's description of the figure: FIG. 10. Amino acid sequence, structure, and inhibitory activity of selected p53 macrocyclic peptidomimetics and reference linear peptides. The inhibitory activities refer to IC50 values for disruption of p53(15-29)-HDM2 interaction or p53(15-29)-HDMX interaction as determined using a Surface Plasmon Resonance-based inhibition assay.
(§3) First copying reader's note: In cyclic peptides the linker name (SP4, SP6, SP8, SP9) is printed above the sequence inside a bracket running from the pAcF/mAcF residue to the C-terminus; it is given here before the sequence.
(§4) Where the first naming reader finds the target: description_of_the_figure: IC50 values for disruption of p53(15-29)-HDM2 interaction or p53(15-29)-HDMX interaction

Data set [3] relates to p53(15-29)-HDMX interaction. Kind of data set: HDMX IC50 (nM).
Text: as §1
Head of the field: HDMX IC50 (nM)
as §2, §3, §4

Another data set deals with T1, HDMX (Homo sapiens, UniProt O15151).
T1 construct: His tag (C); made in house; host or cells: E. coli BL21(DE3)
T1 sequence (O15151 1-109): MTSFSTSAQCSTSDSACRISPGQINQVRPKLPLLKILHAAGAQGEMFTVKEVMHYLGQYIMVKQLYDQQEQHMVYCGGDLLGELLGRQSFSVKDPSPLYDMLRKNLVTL
Kind of data set: SPR inhibition assay, disruption of p53(15-29)-HDMX interaction. It counts as binding. To be noted: selectivity ratio between the two protein homologs. An excerpt: The ability of the macrocyclic peptidomimetic molecules to bind a protein of interest and disrupt a target protein-protein interaction can be assessed, for example, via in vitro surface plasmon resonance (SPR)-based inhibition assays. For example, the ability of these compounds to inhibit the interaction of p53 with oncoprotein HDM2 and HDMX can be measured via an in-solution inhibition assay, in which a biotinylated p53-derived peptide (e.g., biotin-SGSG-p5315-29) is first immobilized on a streptavidin-coated biosensor chip. Soluble HDM2 (or HDMX) is then incubated with varying concentrations of the macrocycle and the mixture is then injected over the functionalized surface. With increasing concentrations of the inhibitor, binding of HDM2 (or HDMX) to the surface is inhibited, leading to a decrease in biosensor response. The response-concentration curves can be then analyzed to measure the inhibitory activity of the compounds in terms of half-maximal inhibitory concentration (IC50).
Briefly, biotin-conjugated […] peptide was first immobilized on a streptavidin-coated biosensor chip and increasing concentrations of the inhibitors were added to a fixed concentration of HDM2 or HDMX. From the corresponding dose-response curves (FIGS. 12A-12B), half-maximal inhibitory concentrations (IC50) were determined for the compounds as summarized in FIG. 10. […]

Procedure for chymotrypsin: This property can be assessed by incubating the macrocyclic peptidomimetic molecules and the corresponding reference non-macrocyclic polypeptides in the presence of purified proteases or, alternatively, human blood serum. The in vitro proteolytic degradation of the compounds can be then monitored over time by HPLC equipped with a UV detector. From the resulting time-dependent curves, the half-life of the compounds can be measured. As an example, the in vitro proteolytic stability of macrocycles was measured by incubating the compound (10 μM) in 50 mM potassium phosphate buffer (pH 7.5) in the presence of chymotrypsin (1.0 μg/mL) at room temperature. At different time points (e.g. 0, 30, 60, 120, 180, 240 min), an aliquot of the reaction mixture (50 μL) was removed, quenched addition of TFA (5 μL) followed by HPLC analysis. Peptide cleavage was monitored based on the decrease of the peak area corresponding to the integer peptide.
Each peptide (10 μM) was dissolved in 50 mM potassium phosphate buffer (pH 7.5) containing 150 mM NaCl and 10% DMSO. Chymotrypsin (Sigma-Aldrich) was added to a final concentration of 1.0 μg/mL and incubated at room temperature. At each time point, a 50 μL aliquot of the mixture was removed, quenched by TFA addition (5 μL) followed by HPLC analysis. Peptide cleavage was monitored based on the decrease of the peak area corresponding to the integer peptide. […]

On to `CC1=NOCCCNC(=O)c2ccc(CSCC(N)=O)c(c2)NC(=O)[C@H](C)NC(=O)[C@H](CC(C)C)NC(=O)[C@H](CC(C)C)NC(=O)[C@H](CC(N)=O)NC(=O)[C@H](Cc2c[nH]c3ccccc23)NC(=O)[C@H](Cc2ccc(O)cc2)NC(=O)[C@H](CCC(=O)O)NC(=O)[C@H](C)NC(=O)[C@H](Cc2ccccc2)NC(=O)[C@H](CO)NC(=O)[C@@H](NC(=O)CN)Cc2ccc1cc2` [P8], for which, on chymotrypsin, the “survival of incubation with the protease, up to” value was no more than 4 h. Moreover, the “viability of SJSA-1 cells upon treatment” value in the data set on SJSA-1 cells is reported as “a reduction of cell viability”. In addition, in the data set on HEK-293 cells, the “cellular uptake (confocal fluorescence microscopy)” value was “diffuse fluorescence at the intracellular level”. In addition, the α-helical content in data set [1] is given as 21%.

As to `CC1=NOCc2cn(nn2)Cc2ccc(CSCC(N)=O)c(c2)NC(=O)[C@H](C)NC(=O)[C@H](CC(C)C)NC(=O)[C@H](CC(C)C)NC(=O)[C@H](CC(N)=O)NC(=O)[C@H](Cc2c[nH]c3ccccc23)NC(=O)[C@H](Cc2ccc(O)cc2)NC(=O)[C@H](CCC(=O)O)NC(=O)[C@H](C)NC(=O)[C@H](Cc2ccccc2)NC(=O)[C@H](CO)NC(=O)[C@@H](NC(=O)CN)Cc2ccc1cc2` [P7], at chymotrypsin, the “survival of incubation with the protease, up to” value is “up to 3 hour”. The same compound came in with a α-helical content in data set [1] of 40%.

As for “P6: unconstrained reference linear peptide (SEQ ID NO. 44), acyclic counterpart of P7 and P8 (GYSFAEYWNLLA; Engineered Sequence)”, the IC50 in data set [2] turned out to be 65 nM; in data set [3], 355 nM.

In the case of “P6: unconstrained reference linear peptide (SEQ ID NO. 44), acyclic counterpart of P7 and P8 (GYSFAEYWNLLA; Engineered Sequence) [reference compound]”, the α-helical content entry in data set [1] was “about 31%”. Further, in the data set with HDMX, the “IC50(HDMX)/IC50(HDM2)” value was 5.5.

Take `COc1ccc(C2=N[C@@H](c3ccc(Cl)cc3)[C@@H](c3ccc(Cl)cc3)N2C(=O)N2CCNC(=O)C2)c(OC(C)C)c1` [nutlin-3]: the “viability of SJSA-1 cells upon treatment” value with SJSA-1 cells was “responsiveness of the cells to p53-HDM2 inhibition was confirmed”.

Take `CC1=NOCc2ccc(CS)c(c2)NC(=O)[C@H](C)NC(=O)[C@H](CC(C)C)NC(=O)[C@H](CC(C)C)NC(=O)[C@H](CC(N)=O)NC(=O)[C@H](Cc2c[nH]c3ccccc23)NC(=O)[C@H](Cc2ccc(O)cc2)NC(=O)[C@H](CCC(=O)O)NC(=O)[C@H](C)NC(=O)[C@H](Cc2ccccc2)NC(=O)[C@H](CO)NC(=O)[C@@H](NC(=O)CN)Cc2ccc1cc2` [P9]: the IC50 in data set [2] and in data set [3] was greater than 50000 nM each time.

These data come from US10294273B2, “Macrocyclic peptidomimetics for alpha-helix mimicry” (UNIVERSITY OF ROCHESTER, priority 2014, dated 2019).
